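Growth conditions: 96-well plates. Treatment: test compound, 48 hours, 5 concentrations. Analysis: linear interpolation between bracketing concentrations; unreached endpoints set to highest concentration. At the TGI there is no net growth.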
Columns and labels:
Assay in all cases: inhibition of tumour cell growth, NCI panel, 48 h
UACC-257 melanoma = test system: UACC-257 melanoma
RXF-631 renal = test system: RXF-631 renal
K-562 leukemia = test system: K-562 leukemia
UACC-62 melanoma = test system: UACC-62 melanoma
RPMI-8226 leukemia = test system: RPMI-8226 leukemia
U251 CNS = test system: U251 CNS
HT29 colon = test system: HT29 colon
M14 melanoma = test system: M14 melanoma
NCI-H522 lung = test system: NCI-H522 lung
KM20L2 colon = test system: KM20L2 colon
SNB-19 CNS = test system: SNB-19 CNS
CCRF-CEM leukemia = test system: CCRF-CEM leukemia
DMS 114 small cell lung = test system: DMS 114 small cell lung
NCI-H23 lung = test system: NCI-H23 lung
OVCAR-4 ovarian = test system: OVCAR-4 ovarian
TK-10 renal = test system: TK-10 renal
ACHN renal = test system: ACHN renal
LXFL 529 NSCLC = test system: LXFL 529 NSCLC
LOX IMVI melanoma = test system: LOX IMVI melanoma
NCI-H460 lung = test system: NCI-H460 lung

SMILES	TGI (UACC-257 melanoma) [µM]	TGI (RXF-631 renal) [µM]	TGI (K-562 leukemia) [µM]	TGI (UACC-62 melanoma) [µM]	TGI (RPMI-8226 leukemia) [µM]	TGI (U251 CNS) [µM]	TGI (HT29 colon) [µM]	TGI (M14 melanoma) [µM]	TGI (NCI-H522 lung) [µM]	TGI (KM20L2 colon) [µM]	TGI (SNB-19 CNS) [µM]	TGI (CCRF-CEM leukemia) [µM]	TGI (DMS 114 small cell lung) [µM]	TGI (NCI-H23 lung) [µM]	TGI (OVCAR-4 ovarian) [µM]	TGI (TK-10 renal) [µM]	TGI (ACHN renal) [µM]	TGI (LXFL 529 NSCLC) [µM]	TGI (LOX IMVI melanoma) [µM]	TGI (NCI-H460 lung) [µM]
COC(=O)CN(C)P(=O)(N1CC1)N1CC1	> 100	> 100	> 100	> 100	> 100	> 100	> 100	> 100	> 100	> 100	> 100	> 100	> 100	> 100	> 100	> 100	> 100	> 100	> 100	
COc1cc2c3c(c4cc(OC)c(OC)cc4c2cc1OC)C(=O)C1CCC(=O)N1C3 (configuration not stated)	> 100		> 100	> 100	> 100	> 100			23.3			30.8		> 100	> 100	54.5	59.7		> 100	> 100
Cc1cccc(C(C)C)c1NC(=O)CC1Sc2ccccc2NC1=O (configuration not stated)	> 100	> 100	> 100	> 100	> 100	> 100	> 100	> 100	> 100	> 100	> 100	> 100	85	> 100	> 100	> 100	> 100	> 100	> 100	> 100

— PubChem BioAssay (NCI)
